Data taken from patent publication US20010051374A1, “HIGH […] MO[…]” (priority 1997, published 2001).

System: 293 cells
Test: Coamatic Factor VIII assay of supernatants of 293 cells infected with rAAV
Type: cell-based, human
Set-up: dose or concentration left out as unconfirmed
Conditions: etoposide added to medium of cells co-infected with rAAV-80L and rAAV-90H
Description: The heavy and light chain constructs, pKm201-80L and pKm201-90H, were packaged following standard procedures for the production of rAAV (Zhou et al. (1994) J. Exp. Med. 179:1867-1875). rAAV was purified as described (Wang et al. (1995) Proc. Natl. Acad. Sci. USA 92:12416-12420) and used to infect 293 cells plated in 6-well plates. Supernatants of infected cells were collected 48 h after infection and assayed for biologically active factor VIII by Coamatic Factor VIII (KabiVitrum, Stockholm), following the manufacturer's instructions. Normal human plasma (George King Bio-Medical, Inc., Overland Park, Kans.) was used to generate a standard curve. Cells were infected at a multiplicity of infection (MOI) of 6000 rAAV particles per cell. The experiment was done both with and without the addition of etoposide ([…]) to the medium. […] The amount of factor VIII was increased in the presence of etoposide.

COc1cc([C@@H]2c3cc4c(cc3[C@@H](O[C@@H]3O[C@@H]5CO[C@@H](C)O[C@H]5[C@H](O)[C@H]3O)[C@H]3COC(=O)[C@H]23)OCO4)cc(OC)c1O [etoposide]
amount of factor VIII: increased
